{
  "source": "paper PMC8232704",
  "about": "“Hydrophobic Tagging-Mediated Degradation of Transcription Coactivator SRC-1” (International Journal of Molecular Sciences, 2021)",
  "key": {"[1]": {"biological_target": "T1, PAS-B domain of human SRC-1 (residues 257–385) (Homo sapiens, UniProt Q15788)", "T1 construct": "PAS-B domain of human SRC-1 (residues 257–385); His6; made in house; host or cells: Rosetta E. coli", "T1 sequence (Q15788 257-385)": "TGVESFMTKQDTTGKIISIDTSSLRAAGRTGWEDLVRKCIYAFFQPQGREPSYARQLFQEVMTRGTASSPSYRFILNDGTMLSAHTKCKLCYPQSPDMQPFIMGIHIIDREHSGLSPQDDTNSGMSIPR", "assay": "Competitive fluorescence polarization (FP) assay, fluorescein-labeled STAT-6 peptide binding to SRC-1", "conditions": "100 nM fluorescein-labeled 15-mer STAT-6 peptide, 1 μM PAS-B domain of SRC-1, HEPES pH 7.4, SD from three independent experiments", "experimental": "A plasmid expressing the PAS-B domain of human SRC-1 (residues 257–385) tagged with His6 was provided by John A. Robinson (University of Zürich at Switzerland). It was transformed into Rosetta E. coli cells. SRC-1 protein purification was performed as described previously.\nAfter incubating 100 nM of fluorescein-labeled 15-mer STAT-6 peptide with 1 μM of PAS-B domain of SRC-1 in a binding buffer (50 mM HEPES pH 7.4, 150 mM NaCl, 3.4 mM EDTA, and 0.01% Tween 20) in a black Greiner 384-well plate for 30 min, indicated concentrations of YL2 and YL2-HyT1 through YL2-HyT6 were added to each well. After incubation for another 1.5 h, fluorescence polarization was measured on a Tecan Infinite F200 Pro microplate reader (excitation wavelength: 485 nm, emission wavelength: 535 nm). The Ki values of the compounds in the competition assay were determined using the following equation [43]. (1) Ki=[I]50/[L]50/KD+[P]0/KD+1 where [I]50 is the concentration of the free inhibitor at 50% inhibition, KD is the dissociation constant of the protein–ligand complex, [L]50 is the concentration of the free labeled ligand at 50% inhibition, and [P]0 is the concentration of the free protein at 0% inhibition."}, "[2]": {"biological_target": "T2, SRC-1 in MDA-MB-231 cells (Homo sapiens, UniProt Q15788)", "T2 construct": "endogenous in cells; host or cells: MDA-MB-231", "T2 sequence (Q15788 whole entry)": "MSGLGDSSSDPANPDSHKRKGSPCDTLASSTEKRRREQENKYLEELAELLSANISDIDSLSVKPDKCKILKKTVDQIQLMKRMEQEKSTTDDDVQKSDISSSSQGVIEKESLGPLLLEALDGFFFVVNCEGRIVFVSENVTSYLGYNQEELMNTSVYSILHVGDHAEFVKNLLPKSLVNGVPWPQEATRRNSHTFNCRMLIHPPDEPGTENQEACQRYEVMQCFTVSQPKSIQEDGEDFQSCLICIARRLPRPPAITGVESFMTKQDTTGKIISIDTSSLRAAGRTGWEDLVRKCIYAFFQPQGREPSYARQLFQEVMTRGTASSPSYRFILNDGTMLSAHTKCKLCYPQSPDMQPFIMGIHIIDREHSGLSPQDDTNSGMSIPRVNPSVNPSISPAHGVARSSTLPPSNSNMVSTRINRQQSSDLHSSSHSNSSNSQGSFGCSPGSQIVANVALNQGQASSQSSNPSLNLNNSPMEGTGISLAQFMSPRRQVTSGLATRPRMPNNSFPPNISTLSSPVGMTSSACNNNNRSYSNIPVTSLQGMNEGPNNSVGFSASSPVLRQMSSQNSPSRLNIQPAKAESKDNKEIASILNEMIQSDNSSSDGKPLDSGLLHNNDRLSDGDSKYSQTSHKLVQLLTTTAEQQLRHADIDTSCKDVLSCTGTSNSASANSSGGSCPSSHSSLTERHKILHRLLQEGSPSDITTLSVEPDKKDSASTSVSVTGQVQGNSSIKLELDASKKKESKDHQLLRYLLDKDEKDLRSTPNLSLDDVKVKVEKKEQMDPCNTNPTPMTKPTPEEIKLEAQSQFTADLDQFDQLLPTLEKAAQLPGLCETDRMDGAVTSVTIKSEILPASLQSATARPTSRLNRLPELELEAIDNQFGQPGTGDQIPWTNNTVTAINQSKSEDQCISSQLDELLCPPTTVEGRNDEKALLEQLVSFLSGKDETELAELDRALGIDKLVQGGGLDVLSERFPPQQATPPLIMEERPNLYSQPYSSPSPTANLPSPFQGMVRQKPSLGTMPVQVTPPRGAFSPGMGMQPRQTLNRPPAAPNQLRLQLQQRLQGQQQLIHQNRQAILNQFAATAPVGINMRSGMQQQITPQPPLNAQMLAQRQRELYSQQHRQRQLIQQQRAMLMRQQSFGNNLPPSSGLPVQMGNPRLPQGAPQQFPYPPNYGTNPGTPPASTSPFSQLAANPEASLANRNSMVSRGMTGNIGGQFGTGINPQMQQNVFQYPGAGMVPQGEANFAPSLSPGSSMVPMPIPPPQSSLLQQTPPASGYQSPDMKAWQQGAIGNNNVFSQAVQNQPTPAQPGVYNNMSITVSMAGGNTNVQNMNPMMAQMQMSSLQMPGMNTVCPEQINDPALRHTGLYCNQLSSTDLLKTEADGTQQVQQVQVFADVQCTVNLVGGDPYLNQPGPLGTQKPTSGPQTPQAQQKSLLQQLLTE", "assay": "Immunoblot analysis of cellular SRC-1 levels (SRC-1 degradation)", "format": "cell-based", "conditions": "for SRC-1 (%): normalized to GAPDH and DMSO controls", "experimental": "MDA-MB-231 and HEK293T cells were cultured in a medium containing Dulbecco’s modified eagle medium (DMEM) supplemented with 1% penicillin–streptomycin (PS) and 10% FBS with 5% CO2 at 37 °C.\nMDA-MB-231 cells were seeded into 6-well pates (Corning, 3506) at a density of 6 × 10^5 cell per well. After incubation at 37 °C for 24 h, cells were treated with synthesized compounds in Opti-MEM medium for 12, 18, or 24 h. Cells were washed twice with cold Dulbecco’s phosphate-buffered saline (DPBS) prior to cell lysis using a cell lysis buffer (1% Triton X-100, 150 mM NaCl, 50 mM Tris-HCl pH 7.6, 0.1% SDS, 0.5% sodium deoxycholate, and 1 × protease inhibitor cocktail) on ice. Cell lysates were centrifuged at 13,000 rpm at 4 °C for 15 min. The supernatant was collected, and protein concentration was determined using Pierce^TM 660nm protein assay. A 6 × SDS loading buffer was added to the cell lysate and incubated at 95 °C for 5 min. The same amount of protein was subjected to SDS-PAGE and transferred to PVDF membranes. After blocking membranes with 5% skim milk in TBST (Tris-buffered saline with 0.05% Tween 20), membranes were incubated with a primary antibody at 4 °C overnight. Membranes were then incubated with HRP-linked secondary antibody at rt for 1 h and developed with Pico ECL solution. In MG-132 and 17-AAG treatment experiments, MDA-MB-231 cells were cotreated with synthesized compounds and MG-132 (5 μM) or 17-AAG (1 μM) at 37 °C for 18 h."}, "[3]": {"test_system": "E-cadherin mRNA in MDA-MB-231 cells", "assay": "RT-qPCR of E-cadherin mRNA", "format": "cell-based, human", "conditions": "18 h, RT-qPCR normalized to 18S", "experimental": "Quantitative real-time PCR was performed for CSF-1, E-cadherin, and 18S (as a reference gene) mRNAs. MDA-MB-231 cells (1.2 × 10^5 cells/well) were seeded into a 12-well plate and incubated at 37 °C with 5% CO2 for 24 h. These cells were treated with indicated compounds (YL2, adamantane, ND1-YL2, or YL2-HyT6) for 18 h in Opti-MEM medium. After cells were washed with cold DPBS, mRNAs were isolated from these cells using an AccuPrep Universal RNA extraction kit (Bioneer, Daejeon, Korea). Then 1.5 µg of mRNAs were reverse-transcribed using AccuPower RocketScript Cycle RT PreMix (Bioneer) to generate complementary DNAs. RT-qPCR for CSF-1, E-cadherin, and 18S was performed with a StepOnePlus Real-Time PCR System (Applied Biosystems, Waltham, MA, USA) and SYBR Green mix (Applied Biosystems) according to the manufacturer’s instructions with gene-specific primers (Table 1)."}, "[4]": {"test_system": "MDA-MB-231 cells", "assay": "Matrigel transwell invasion assay", "format": "cell-based, human", "conditions": "Matrigel chambers, 24 h", "experimental": "Matrigel invasion chambers (Corning 354480) were placed in 24-well plates and rehydrated with FBS-free DMEM medium at 37 °C in a CO2 incubator for 2 h. After removing the medium, 4 × 10^4 cells of MDA-MB-231 were seeded into Matrigel invasion chambers and control chambers (Corning, 354578) with 125 µL of Opti-MEM medium. Then another 125 µL of each compound (YL2, adamantane, ND1-YL2, or YL2-HyT6) in Opti-MEM medium was added to each chamber. The bottom of the well was filled with 500 µL of DMEM medium containing 10% FBS 1% PS. The chambers were then incubated at 37 °C with 5% CO2 for 24 h. After removing the medium, the chambers were washed with cold PBS. Then noninvading cells on the upper surface of the membrane were removed by scrubbing with a cotton swab. Cells on the bottom side of the membrane were fixed with 500 µL of 4% formaldehyde for 10 min at rt. After washing with PBS, the bottom side of the chamber was stained with 500 µL of Hoechst 33342 (5 µg/mL) for 5 min at 37 °C in the CO2 incubator. […] The percent invasion (% invasion) of each sample was determined with the following equation:(3) % Invasion=Mean # of cells invading through Matrigel chamber membrane/Mean # of cells migrating through control chamber membrane×100"}},
  "note": "Bridge positions count the residues as written; N and C are the ends. Square brackets hold non-standard residues; d marks the D form. Peptide text beside a SMILES is read from it. N(1-adamantyl)Gly = O=C(O)CNC12CC3CC(CC(C3)C1)C2; Cha = N[C@@H](CC1CCCCC1)C(=O)O; S5 = C=CCCC[C@](C)(N)C(=O)O; PEG3 = NCCOCCOCCOCCC(=O)O",
  "data": [
    {"compound": "CC(C)C[C@H](NC(=O)CCOCCOCCOCCNC(=O)CNC12CC3CC(CC(C3)C1)C2)C(=O)N[C@@H](CC(C)C)C(=O)N1CCC[C@H]1C(=O)N1CCC[C@H]1C(=O)N[C@H](C(=O)N[C@@H](CCC(=O)O)C(=O)N[C@@H](CCC(N)=O)C(=O)N[C@@H](CC(=O)O)C(=O)N[C@@H](CC(C)C)C(=O)N[C@@]1(C)CCC/C=C\\CCC[C@@](C)(C(=O)N[C@@H](Cc2ccc(O)cc2)C(N)=O)NC(=O)[C@H](CC2CCCCC2)NC(=O)[C@H](CC(C)C)NC(=O)[C@H](CCCCN)NC1=O)[C@@H](C)O", "note": "[YL2-HyT6] (H-[N(1-adamantyl)Gly][PEG3]LLPPTEQDL[S5]KL[Cha][S5]Y-NH2; staple (Z) 12-16; C-terminus assumed)", "values": [
      {"measurement": "Ki", "setting": "[1]", "value": 237, "unit": "nM"},
      {"measurement": "SRC-1 (%)", "setting": "[2]; MDA-MB-231 cells, 10 μM compound, 18 h", "value": 30, "unit": "%"},
      {"measurement": "SRC-1 (%)", "setting": "[2]; MDA-MB-231 cells, 20 μM compound, 18 h", "value": 20, "unit": "%"},
      {"measurement": "Time to recovery of SRC-1 after washing out compound", "setting": "[2]; MDA-MB-231 cells, 20 μM for 18 h, then washed away", "value": "≤ 12", "unit": "h"},
      {"measurement": "Time-dependent SRC-1 degradation", "setting": "[2]; MDA-MB-231 cells, 20 μM, various time periods up to 24 h", "value": "evidently degraded after 6 h"},
      {"measurement": "SRC-1 (%)", "setting": "[2]; MDA-MB-231 cells, 50 μM compound, 18 h", "value": 13, "unit": "%"},
      {"measurement": "SRC-1 degradation activity compared within YL2-HyT1–6", "setting": "[2]; MDA-MB-231 cells, 12, 18 and 24 h", "value": "most effective SRC-1 degradation activity at all three time points"},
      {"measurement": "DC50", "setting": "[2]; MDA-MB-231 cells, 18 h, immunoblot quantitation (Figure S4), three independent experiments, read-out: DC50 (reduction of cellular SRC-1 levels)", "value": "~5000", "unit": "nM"},
      {"measurement": "SRC-1 levels on cotreatment with Hsp90 inhibitor 17-AAG", "setting": "[2]; MDA-MB-231 cells, YL2-HyT6 2.5 μM with 17-AAG (1 μM), 18 h", "value": "SRC-1 degradation even at a concentration that did not affect SRC-1 levels previously"},
      {"measurement": "SRC-1 levels on cotreatment with proteasome inhibitor MG-132", "setting": "[2]; MDA-MB-231 cells, cotreated with MG-132 (5 μM), 18 h", "value": "SRC-1 levels were not changed in the presence of MG-132"},
      {"measurement": "E-cadherin mRNA expression level", "setting": "[3]", "value": "increase in E-cadherin"},
      {"measurement": "Cell invasion", "setting": "[4]", "value": "remarkably decreased the invasion"}
    ]}
  ]
}
